Assay results from PubChem BioAssay (NCI).
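GI50 marks 50% less growth. At the TGI there is no net growth.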

Assays:
Experiment in all cases: DTP human tumour cell line panel, 384-well format
786-0 renal = tested on: 786-0 renal
A498 renal = tested on: A498 renal
A549 NSCLC = tested on: A549 NSCLC
ACHN renal = tested on: ACHN renal
BT-549 breast = tested on: BT-549 breast
CAKI-1 renal = tested on: CAKI-1 renal
CCRF-CEM leukemia = tested on: CCRF-CEM leukemia
COLO 205 colon = tested on: COLO 205 colon
DU-145 prostate = tested on: DU-145 prostate
EKVX NSCLC = tested on: EKVX NSCLC
HCC-2998 colon = tested on: HCC-2998 colon
HCT-116 colon = tested on: HCT-116 colon
HCT-15 colon = tested on: HCT-15 colon
HL-60(TB) leukemia = tested on: HL-60(TB) leukemia
HOP-62 NSCLC = tested on: HOP-62 NSCLC
HOP-92 NSCLC = tested on: HOP-92 NSCLC
HS 578T breast = tested on: HS 578T breast
HT29 colon = tested on: HT29 colon
IGROV1 ovarian = tested on: IGROV1 ovarian
K-562 leukemia = tested on: K-562 leukemia
KM12 colon = tested on: KM12 colon
LOX IMVI melanoma = tested on: LOX IMVI melanoma
M14 melanoma = tested on: M14 melanoma
MALME-3M melanoma = tested on: MALME-3M melanoma
MCF7 breast = tested on: MCF7 breast
MDA-MB-231 breast = tested on: MDA-MB-231 breast
MDA-MB-435 melanoma = tested on: MDA-MB-435 melanoma
MDA-MB-468 breast = tested on: MDA-MB-468 breast
MOLT-4 leukemia = tested on: MOLT-4 leukemia
NCI-H226 lung = tested on: NCI-H226 lung
NCI-H23 lung = tested on: NCI-H23 lung
NCI-H322M lung = tested on: NCI-H322M lung
NCI-H460 NSCLC = tested on: NCI-H460 NSCLC
NCI-H522 lung = tested on: NCI-H522 lung
OVCAR-3 ovarian = tested on: OVCAR-3 ovarian
OVCAR-4 ovarian = tested on: OVCAR-4 ovarian
OVCAR-5 ovarian = tested on: OVCAR-5 ovarian
OVCAR-8 ovarian = tested on: OVCAR-8 ovarian
PC-3 prostate = tested on: PC-3 prostate
RPMI-8226 leukemia = tested on: RPMI-8226 leukemia
RXF 393 renal = tested on: RXF 393 renal
SF-268 CNS = tested on: SF-268 CNS
SF-295 CNS = tested on: SF-295 CNS
SF-539 CNS = tested on: SF-539 CNS
SK-MEL-2 melanoma = tested on: SK-MEL-2 melanoma
SK-MEL-28 melanoma = tested on: SK-MEL-28 melanoma
SK-MEL-5 melanoma = tested on: SK-MEL-5 melanoma
SK-OV-3 ovarian = tested on: SK-OV-3 ovarian
SN12C renal = tested on: SN12C renal
SNB-19 CNS = tested on: SNB-19 CNS
SNB-75 CNS = tested on: SNB-75 CNS
SR leukemia = tested on: SR leukemia
SW-620 colon = tested on: SW-620 colon
T-47D breast = tested on: T-47D breast
TK-10 renal = tested on: TK-10 renal
U251 glioblastoma = tested on: U251 glioblastoma
UACC-257 melanoma = tested on: UACC-257 melanoma
UACC-62 melanoma = tested on: UACC-62 melanoma
UO-31 renal = tested on: UO-31 renal

COc1cc([C@@H]2c3cc4c(cc3[C@@H](OC3OC5COC(C)OC5C(O)C3O)[C@H]3COC(=O)[C@H]23)OCO4)cc(OC)c1O (stereo not given in full)
GI50 ([…]-0 renal): 1.59 µM
TGI (786-0 renal): 7.56 µM
GI50 (A498 renal): 2 µM
TGI (A498 renal): 19 µM
GI50 (A549 NSCLC): 1.22 µM
TGI (A549 NSCLC): > 47 µM
GI50 (ACHN renal): 1.8 µM
TGI (ACHN renal): 10.3 µM
GI50 (BT-549 breast): 0.877 µM
TGI (BT-549 breast): 4.74 µM
GI50 (CAKI-1 renal): 1.61 µM
TGI (CAKI-1 renal): > 41 µM
GI50 (CCRF-CEM leukemia): 0.0638 µM
TGI (CCRF-CEM leukemia): 0.2 µM
GI50 (COLO 205 colon): 0.433 µM
TGI (COLO 205 colon): 10.6 µM
GI50 (DU-145 prostate): 1.52 µM
TGI (DU-145 prostate): 5.25 µM
GI50 (EKVX NSCLC): 11.3 µM
TGI (EKVX NSCLC): > 43.6 µM
GI50 (HCC-2998 colon): 1.82 µM
TGI (HCC-2998 colon): 4.15 µM
GI50 (HCT-116 colon): 0.56 µM
TGI (HCT-116 colon): 25.9 µM
GI50 (HCT-15 colon): 2.01 µM
TGI (HCT-15 colon): 13.6 µM
GI50 (HL-60(TB) leukemia): 0.0215 µM
TGI (HL-60(TB) leukemia): 0.0492 µM
GI50 (HOP-62 NSCLC): 0.747 µM
TGI (HOP-62 NSCLC): 2.51 µM
GI50 (HOP-92 NSCLC): 2.46 µM
TGI (HOP-92 NSCLC): > 43.1 µM
GI50 (HS 578T breast): 0.463 µM
TGI (HS 578T breast): 4.82 µM
GI50 (HT29 colon): 2.28 µM
TGI (HT29 colon): 7.3 µM
GI50 (IGROV1 ovarian): 4.27 µM
TGI (IGROV1 ovarian): > 37.6 µM
GI50 (K-562 leukemia): 0.91 µM
TGI (K-562 leukemia): 6.36 µM
GI50 (KM12 colon): 1.68 µM
TGI (KM12 colon): 7.91 µM
GI50 (LOX IMVI melanoma): 1.66 µM
TGI (LOX IMVI melanoma): 15.9 µM
GI50 (M14 melanoma): 1.32 µM
TGI (M14 melanoma): 6.64 µM
GI50 (MALME-3M melanoma): 6.15 µM
TGI (MALME-3M melanoma): 43.5 µM
GI50 (MCF7 breast): 0.716 µM
GI50 (MDA-MB-231 breast): 1.88 µM
TGI (MDA-MB-231 breast): 4.62 µM
GI50 (MDA-MB-435 melanoma): 3.96 µM
TGI (MDA-MB-435 melanoma): 20.4 µM
GI50 (MDA-MB-468 breast): 1.13 µM
TGI (MDA-MB-468 breast): 2.78 µM
GI50 (MOLT-4 leukemia): 0.0176 µM
TGI (MOLT-4 leukemia): 0.0389 µM
GI50 (NCI-H226 lung): 2.48 µM
TGI (NCI-H226 lung): > 37.2 µM
GI50 (NCI-H23 lung): 0.809 µM
TGI (NCI-H23 lung): 4.37 µM
GI50 (NCI-H322M lung): 29.1 µM
TGI (NCI-H322M lung): > 96.7 µM
GI50 (NCI-H460 NSCLC): 0.0915 µM
TGI (NCI-H460 NSCLC): 7.61 µM
GI50 (NCI-H522 lung): 1.21 µM
TGI (NCI-H522 lung): 7.35 µM
GI50 (OVCAR-3 ovarian): 2.64 µM
TGI (OVCAR-3 ovarian): 13.8 µM
GI50 (OVCAR-4 ovarian): 39.9 µM
GI50 (OVCAR-5 ovarian): 3.37 µM
TGI (OVCAR-5 ovarian): 13.8 µM
GI50 (OVCAR-8 ovarian): 1.53 µM
TGI (OVCAR-8 ovarian): 10.3 µM
GI50 (PC-3 prostate): 20.4 µM
GI50 (RPMI-8226 leukemia): 0.0361 µM
TGI (RPMI-8226 leukemia): 0.564 µM
GI50 (RXF 393 renal): 9.62 µM
TGI (RXF 393 renal): 38.3 µM
GI50 (SF-268 CNS): 1.36 µM
TGI (SF-268 CNS): 6.87 µM
GI50 (SF-295 CNS): 0.851 µM
TGI (SF-295 CNS): 3.01 µM
GI50 (SF-539 CNS): 0.976 µM
TGI (SF-539 CNS): 4.38 µM
GI50 (SK-MEL-2 melanoma): 4.15 µM
TGI (SK-MEL-2 melanoma): 8.27 µM
GI50 (SK-MEL-28 melanoma): 2.61 µM
TGI (SK-MEL-28 melanoma): 11.4 µM
GI50 (SK-MEL-5 melanoma): 0.37 µM
TGI (SK-MEL-5 melanoma): 1.71 µM
GI50 (SK-OV-3 ovarian): 2.94 µM
TGI (SK-OV-3 ovarian): 14.6 µM
GI50 (SN12C renal): 1.28 µM
TGI (SN12C renal): 5.72 µM
GI50 (SNB-19 CNS): 1.08 µM
TGI (SNB-19 CNS): > 23.1 µM
GI50 (SNB-75 CNS): 1.36 µM
TGI (SNB-75 CNS): 6.63 µM
GI50 (SR leukemia): 0.0161 µM
TGI (SR leukemia): 0.0494 µM
GI50 (SW-620 colon): 0.441 µM
TGI (SW-620 colon): 5.58 µM
GI50 (T-47D breast): 1.04 µM
TGI (T-47D breast): > 95.3 µM
GI50 (TK-10 renal): 2.88 µM
TGI (TK-10 renal): 11.3 µM
GI50 (U251 glioblastoma): 0.533 µM
TGI (U251 glioblastoma): 5.05 µM
GI50 (UACC-257 melanoma): 16.6 µM
TGI (UACC-257 melanoma): > 75.9 µM
GI50 (UACC-62 melanoma): 1.33 µM
TGI (UACC-62 melanoma): 16.6 µM
GI50 (UO-31 renal): 22.2 µM
TGI (UO-31 renal): > 77.9 µM
